Measurements: US9326934B2, “Drug delivery from rapid gelling polymer composition” (Angiotech International AG, priority 2002, dated 2016)
pIC50: −log10 of the molar value.

Experiments:
THP-1 cells = test: TNF-alpha production by macrophages (ELISA); format: cell-based, human; settings: 1 mg/mL opsonized zymosan, 24 hours, n=4, FIG. 8, read-out: IC50 TNFα production
Method: The human macrophage cell line, THP-1 is plated in a 12 well plate such that each well contains 1×10^6 cells in 2 mL of media containing 10% FCS. Opsonized zymosan is prepared by resuspending 20 mg of zymosan A in 2 mL of ddH2O and homogenizing until a uniform suspension is obtained. Homogenized zymosan is pelleted at 250 g and resuspended in 4 mL of human serum for a final concentration of 5 mg/mL. and incubated in a 37° C. water bath for 20 minutes to enable opsonization. Bay 11-7082 is prepared in DMSO at a concentration of 10^−2 M and serially diluted 10-fold to give a range of stock concentrations (10^−8 M to 10^−2 M) (J. Immunol. (2000) 165: 411-418; J. Immunol. (2000) 164: 4804-4811; J. Immunol. Meth. (2000) 235 (1-2): 33-40).
THP-1 cells are stimulated to produce TNFα by the addition of 1 mg/mL opsonized zymosan. […]
After a 24 hour stimulation, supernatants are collected to quantify TNFα production. TNFα concentrations in the supernatants are determined by ELISA using recombinant human TNFα to obtain a standard curve. […] The dilution of Capture Antibody used is lot-specific and is determined empirically. […] Stop Solution (2 NH2SO4) is then added to the wells and a yellow colour reaction is read at 450 nm with λ correction at 570 nm. Mean absorbance is determined from triplicate data readings and the mean background is subtracted. […]

human fibroblasts = test: Screening assay for cell proliferation (CYQUANT); format: cell-based; settings: Fibroblast, 72 hours, n=4 replicate experiments, FIG. 6
Method: Fibroblasts at 70-90% confluency are trypsinized, replated at 600 cells/well in media in 96-well plates and allowed to attachment overnight. […] Each drug concentration is tested in triplicate wells.
To terminate the assay, the media is removed by gentle aspiration. […] Plates are incubated at room temperature, protected from light for 3-5 minutes.

SMILES	pIC50 (THP-1 cells)	pIC50 (human fibroblasts)
Cc1ccc(S(=O)(=O)/C=C/C#N)cc1 [Bay 11-7082]	6.09	
O=C1c2c(O)ccc(O)c2C(=O)c2c(NCCNCCO)ccc(NCCNCCO)c21 [Mitoxantrone, 9,10-Anthracenedione, 1,4-dihydroxy-5,8-bis[[2-[(2-hydroxyethyl)amino]ethyl]amino]-]		7.70
